For one experiment, the target named is T1, CK2A1 (CK2α/β) (Homo sapiens, UniProt P68400).
T1 construct: made in house
In words: CK2 kinase assay, CK2A1 (CK2α/β). It counts as biochemical. The protocol:
(§1) The effectiveness of compounds of the present invention as inhibitors of protein kinases can be readily tested by assays known to those skilled in the art. For example, in vitro protein kinase assays may be conducted with a relevant purified protein kinase and an appropriate synthetic substrate to determine the inhibitory activity of the compounds. […] Reaction mixtures were incubated at 30° C. for 1 hour, and reaction products were captured by binding to phosphocellulose (P81) filter plates. Incorporation of radioactive phosphate into the peptide substrate was determined by liquid scintillation counting. The potency of compounds in inhibiting CK2 is expressed as IC50, defined as the concentrations of compounds required to inhibit the enzymatic activity by 50%.
(§2) The inhibitory activity of the instant compounds may also be measured by recombinant CK2 holoenzyme kinase assays. The assays were performed in U-bottom 384-well plates. The final assay volume was 30 μl prepared from 15 μl additions of enzyme and substrates (fluoresceinated peptide FL-RRRADDSDDDDD-NH2 and ATP) and test compounds in assay buffer (20 mM HEPES pH 7.4, 10 mM MgCl2, 100 mM NaCl, 0.015% Brij35 and 0.25 mM DTT). The reaction was initiated by the combination of bacterially expressed, CK2 α/β or CK2 α′/β holoenzyme with substrates and test compounds. The reaction was incubated at room temperature for 60 minutes and terminated by adding 30 μl of 35 mM EDTA to each sample. The reaction mixture was analyzed on the Caliper LABCHIP® 3000 (Caliper, Hopkinton, Mass.) by electrophoretic separation of the fluorescent substrate and phosphorylated product. Inhibition data were calculated by comparison to no enzyme control reactions for 100% inhibition and vehicle-only reactions for 0% inhibition. The final concentration of reagents in the CK2 α/β assay was 25 μM ATP, 1.5 μM FL-RRRADDSDDDDD-NH2, […] CK2 α/β holoenzyme, and 1.6% DMSO. The final concentration of reagents in the CK2 α′/β assay was 10 μM ATP, 1.5 μM FL-RRRADDSDDDDD-NH2, 100 pM CK2 α′/β holoenzyme, and 1.6% DMSO. Dose response curves were generated to determine the concentration required inhibiting 50% of kinase activity (IC50). Compounds were dissolved at 10 mM in dimethylsulfoxide (DMSO) and evaluated at eleven concentrations. IC50 values were derived by non-linear regression analysis.

A further experiment has as its target T2, CK2A2 (CK2α′/β) (Homo sapiens, UniProt P19784).
T2 construct: made in house
Description: CK2 kinase assay, CK2A2 (CK2α′/β). It counts as biochemical. The protocol:
as §1, §2

In a further experiment the test system is HCT116. Description: Cell proliferation inhibition assay (MTT/MTS). In kind it is cell-based. The settings on record: Homo sapiens, HCT-116, Table 1, 72 h with compound. The protocol: Compounds were evaluated for their ability to inhibit cell proliferation, using an assay that measures mitochondrial metabolic activity, that is directly correlated with cell numbers. Cells were plated at 2000 cells/well in 96-well plates and were cultured for 24 h in RPMI-1640 supplemented with 2% fetal bovine serum, before test compounds were added. Compounds were diluted in culture medium such that the final concentration of dimethyl sulfoxide never exceeded 1%. Following the addition of compounds, the cells were cultured for an additional 72 h before cell viability was determined by measuring the conversion of 3-(4,5-dimethylthiazol-2-yl)-2,5-diphenyltetrazolium bromide (MTT) dye using the CellTiter96 kit (Promega) or by measuring the conversion of [3-(4,5-dimethylthiazol-2-yl)-5-(3-carboxymethoxyphenyl)-2-(4-sulfophenyl)-2H-tetrazolium (MTS) dye using the CELLTITER 96® AQueous (Promega).

Setting [1] is: Table 1, read-out: CK2A1 (CK2α/β) (IC50).
Where [2] appears, read: Table 1, read-out: CK2A2 (CK2α′/β) (IC50).
The mark [3] stands for this setting: Table 2, comparison compounds of US 2008/0045536, read-out: CK2A1 IC50.
Setting [4] is: Table 2, comparison compounds of US 2008/0045536, read-out: CK2A2 IC50.

Where two headings read alike, the source gives them in different places. Bounds are passed on as bounds.

This is an account of results in patent publication US9371328B2, “Imidazopyridazinecarbonitriles useful as kinase inhibitors” (BRISTOL-MYERS SQUIBB COMPANY, priority 2008, dated 2016).

T2 sequence (P19784 whole entry, species assumed): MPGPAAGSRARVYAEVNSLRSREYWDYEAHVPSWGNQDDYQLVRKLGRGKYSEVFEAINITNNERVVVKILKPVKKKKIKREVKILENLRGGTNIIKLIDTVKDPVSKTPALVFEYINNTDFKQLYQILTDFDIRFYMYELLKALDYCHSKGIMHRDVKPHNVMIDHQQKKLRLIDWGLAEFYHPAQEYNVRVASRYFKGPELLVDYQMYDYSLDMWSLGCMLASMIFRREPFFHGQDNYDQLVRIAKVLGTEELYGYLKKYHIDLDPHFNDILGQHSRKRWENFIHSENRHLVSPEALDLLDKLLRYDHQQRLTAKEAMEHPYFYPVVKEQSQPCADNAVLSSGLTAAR
T2 sequence (P67870 whole entry partner, species assumed): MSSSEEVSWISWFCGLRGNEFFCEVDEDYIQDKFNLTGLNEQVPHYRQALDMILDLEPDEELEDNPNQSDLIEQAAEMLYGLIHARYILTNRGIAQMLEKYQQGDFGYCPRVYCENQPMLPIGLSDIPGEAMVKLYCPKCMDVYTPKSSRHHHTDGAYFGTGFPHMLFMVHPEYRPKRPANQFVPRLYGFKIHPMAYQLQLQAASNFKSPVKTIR
T1 sequence (P68400 whole entry, species assumed): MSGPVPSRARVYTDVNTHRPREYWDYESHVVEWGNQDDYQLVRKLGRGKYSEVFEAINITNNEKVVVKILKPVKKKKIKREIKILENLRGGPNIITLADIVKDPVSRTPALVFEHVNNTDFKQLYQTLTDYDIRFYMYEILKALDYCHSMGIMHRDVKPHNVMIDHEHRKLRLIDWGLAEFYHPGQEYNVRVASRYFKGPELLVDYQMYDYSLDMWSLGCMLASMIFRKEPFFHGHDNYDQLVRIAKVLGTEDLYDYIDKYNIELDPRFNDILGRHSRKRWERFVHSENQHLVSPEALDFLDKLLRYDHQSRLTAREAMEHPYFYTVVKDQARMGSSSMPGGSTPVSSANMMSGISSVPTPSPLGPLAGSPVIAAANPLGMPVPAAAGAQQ
T1 sequence (P67870 whole entry partner, species assumed): as the sequence (P67870 whole entry partner, species assumed) above

With `CC(=O)Nc1cc(Nc2cc(NC3CC3)c3ncc(C#N)n3n2)ccc1C` [Example 1, N-(5-((3-Cyano-8-(cyclopropylamino)imidazo[1,2-b]pyridazin-6-yl)amino)-2-methylphenyl)acetamide], the IC50 on CK2A1 (CK2α/β) (setting [1]) was determined as 0.006 µM; on CK2A2 (CK2α′/β) (setting [2]) it was 0.0075 µM; in the experiment on HCT116 it was 0.03 µM.
For `N#Cc1ccc(Nc2cc(NC3CC3)c3ncc(C#N)n3n2)cc1C(F)(F)F` [Example 31, 6-((4-Cyano-3-(trifluoromethyl)phenyl)amino)-8-(cyclopropylamino)imidazo [1,2-b]pyridazine-3-carbonitrile], in that order: 0.143 µM, 0.0257 µM and 0.46 µM.
For `COc1cc(Nc2cc(NC3CC3)c3ncc(C#N)n3n2)cc(-n2nnnc2C)c1` [Example 37, 8-(Cyclopropylamino)-6-((3-methoxy-5-(5-methyl-1H-tetrazol-1-yl)phenyl)amino) imidazo[1,2-b]pyridazine-3-carbonitrile] the same measures were 0.011 µM, 0.0045 µM and 0.163 µM.
Turning to `N#Cc1cnc2c(NC3CC3)cc(Nc3cccc(C(=O)O)c3)nn12` [Example 44, 3-((3-Cyano-8-(cyclopropylamino)imidazo [1,2-b]pyridazin-6-yl)amino) benzoic acid], the results for the IC50 on CK2A1 (CK2α/β) (setting [1]), on CK2A2 (CK2α′/β) (setting [2]) and in the experiment with HCT116 were 1.31 µM, 0.0351 µM and over 1 µM, respectively.
For `N#Cc1cnc2c(NC3CC3)cc(Nc3ccc(F)c(-n4cnnc4)c3)nn12` [Example 46, 8-(Cyclopropylamino)-6-((4-fluoro-3-(4H-1,2,4-triazol-4-yl)phenyl)amino)imidazo [1,2-b]pyridazine-3-carbonitrile], the IC50 was 0.0043 µM at CK2A1 (CK2α/β) (setting [1]), 0.0024 µM at CK2A2 (CK2α′/β) (setting [2]) and 0.15 µM in the experiment on HCT116.
As to `N#Cc1ccc(Cl)c(Nc2cc(NC3CC3)c3ncc(C#N)n3n2)c1` [Example 47, 6-((2-Chloro-5-cyanophenyl)amino)-8-(cyclopropylamino) imidazo[1,2-b]pyridazine-3-carbonitrile], the values for the IC50 at CK2A1 (CK2α/β) (setting [1]), on CK2A2 (CK2α′/β) (setting [2]) and in the experiment on HCT116 were 0.0074 µM, 0.0052 µM and 0.041 µM, respectively.
In the case of `Cn1cnnc1-c1cccc(Nc2cc(NC3CC3)c3ncc(C#N)n3n2)c1` [Example 48, 8-(Cyclopropylamino)-6-((3 - (4-methyl-4H-1,2,4-triazol-3-yl)phenyl)amino) imidazo[1,2-b]pyridazine-3-carbonitrile], the IC50 on CK2A1 (CK2α/β) (setting [1]) was determined as 0.417 µM; on CK2A2 (CK2α′/β) (setting [2]) it was 0.106 µM; in the experiment on HCT116, 0.46 µM.
For `COc1ccc(Nc2cc(NC3CC3)c3ncc(C#N)n3n2)cc1OC` [Example 56, 8-(Cyclopropylamino)-6-((3,4-dimethoxyphenyl)amino)imidazo[1,2-b] pyridazine-3-carbonitrile], in that order: 0.155 µM, 0.0359 µM and 0.482 µM.
Turning to `N#Cc1cnc(Nc2cc(NC3CC3)c3ncc(C#N)n3n2)s1` [Example 57, 6-((5-Cyano-1,3-thiazol-2-yl)amino)-8-(cyclopropylamino) imidazo[1,2-b]pyridazine-3-carbonitrile], the results for the IC50 on CK2A1 (CK2α/β) (setting [1]), at CK2A2 (CK2α′/β) (setting [2]) and with HCT116 were 0.31 µM, 0.0582 µM and 0.521 µM, respectively.
On to `Cc1cc(O)nc2cc(Nc3cc(NC4CC4)c4ncc(C#N)n4n3)ccc12` [Example 58, 8-(Cyclopropylamino)-6-((4-methyl-2-oxo-1,2-dihydro-7-quinolinyl)amino)imidazo[1,2-b]pyridazine-3-carbonitrile], for which the IC50 on CK2A1 (CK2α/β) (setting [1]) was 0.0122 µM; on CK2A2 (CK2α′/β) (setting [2]), 0.0022 µM; in the experiment with HCT116 it was 0.098 µM.
For `CC(=O)N1CCc2ccc(Nc3cc(NC4CC4)c4ncc(C#N)n4n3)cc21` [Example 64, 6-((1-Acetyl-2,3-dihydro-1H-indol-6-yl)amino)-8-(cyclopropylamino)imidazo [1,2-b]pyridazine-3-carbonitrile] the same measures were 0.012 µM, 0.001 µM and 0.048 µM.
For `CC(C)C(=O)Nc1cccc(Nc2cc(NC3CC3)c3ncc(C#N)n3n2)c1` [Example 66, N-(3-((3-Cyano-8-(cyclopropylamino)imidazo [1,2-b]pyridazin-6-yl)amino)phenyl)-2-methylpropanamide], the IC50 on CK2A1 (CK2α/β) (setting [1]) was 6.06 µM; at CK2A2 (CK2α′/β) (setting [2]), 0.778 µM; in the experiment with HCT116, over 2.5 µM.
With `N#Cc1cnc2c(NC3CC3)cc(Nc3cccc(C(N)=O)c3)nn12` [Example 71, 3-((3-Cyano-8-(cyclopropylamino)imidazo [1,2-b]pyridazin-6-yl)amino) benzamide], the figures for the IC50 on CK2A1 (CK2α/β) (setting [1]), at CK2A2 (CK2α′/β) (setting [2]) and with HCT116 were 0.261 µM, 0.0156 µM and 0.945 µM, respectively.
For `N#Cc1cnc2c(NC3CC3)cc(Nc3cccc(N4CCCC4=O)c3)nn12` [Example 73, 8-(Cyclopropylamino)-6-((3-(2-oxo-1-pyrrolidinyl)phenyl)amino)imidazo[1,2-b]pyridazine-3-carbonitrile], in that order: 4.6 µM, 0.738 µM and 2.24 µM.
On to `Cc1nc(-c2cccc(Nc3cc(NC4CC4)c4ncc(C#N)n4n3)c2)cs1` [Example 80, 8-(Cyclopropylamino)-6-((3-(2-methyl-1,3-thiazol-4-yl)phenyl)amino)imidazo[1,2-b]pyridazine-3-carbonitrile], for which the figures for the IC50 on CK2A1 (CK2α/β) (setting [1]), on CK2A2 (CK2α′/β) (setting [2]) and in the experiment with HCT116 were 4.66 µM, 1.49 µM and over 1 µM, respectively.
`N#Cc1cnc2c(NC3CC3)cc(Nc3ccc(Cl)c(-c4ncco4)c3)nn12` [Example 81, 6-((4-Chloro-3-(1,3-oxazol-2-yl)phenyl)amino)-8-(cyclopropylamino)imidazo [1,2-b]pyridazine-3-carbonitrile]: the IC50 was 0.512 µM on CK2A1 (CK2α/β) (setting [1]), 0.115 µM on CK2A2 (CK2α′/β) (setting [2]) and over 1 µM in the experiment on HCT116.
`N#Cc1cnc2c(NC3CC3)cc(Nc3cccc(-c4nnco4)c3)nn12` [Example 82, 8-(Cyclopropylamino)-6-((3-(1,3,4-oxadiazol-2-yl)phenyl)amino)imidazo[1,2-b]pyridazine-3-carbonitrile]: the IC50 on CK2A1 (CK2α/β) (setting [1]) worked out at 0.479 µM; at CK2A2 (CK2α′/β) (setting [2]), 0.126 µM; with HCT116, 0.127 µM.
With `CN1CCN(C(=O)c2ccc(Nc3cc(NC4CC4)c4ncc(C#N)n4n3)cc2N)CC1` [Example 89, 6-((3-Amino-4-((4-methyl-1-piperazinyl)carbonyl)phenyl)amino)-8-(cyclopropylamino)imidazo [1,2-b]pyridazine-3-carbonitrile], the IC50 on CK2A1 (CK2α/β) (setting [1]) was 6.67 µM; on CK2A2 (CK2α′/β) (setting [2]), 0.94 µM; in the experiment with HCT116, over 1 µM.
For `COC(=O)Nc1cc(Nc2cc(NC3CC3)c3ncc(C#N)n3n2)ccc1C(=O)N1CCN(C)CC1` [Example 93, Methyl (5-((3-cyano-8-(cyclopropylamino)imidazo [1,2-b]pyridazin-6-yl)amino)-2-((4-methyl-1-piperazinyl)carbonyl)phenyl) carbamate] the same measures were 0.712 µM, 0.0684 µM and over 1 µM.
As to `CCOc1ccc(Nc2cc(N[C@H]3CC[C@H](N)CC3)nn3ccnc23)cc1` [I(1), reference compound], on CK2A1 (CK2α/β) (setting [3]), the IC50 was over 50 µM.
On to `N[C@H]1CC[C@H](Nc2cc(Nc3ccccc3)c3nccn3n2)CC1` [I(7), reference compound], for which the IC50 on CK2A1 (CK2α/β) (setting [3]) and on CK2A2 (CK2α′/β) (setting [4]) was over 50 µM each time.
Turning to `Cc1ccc(Nc2cc(N[C@H]3CC[C@H](N)CC3)nn3ccnc23)nc1` [II(16), reference compound], the figures for the IC50 at CK2A1 (CK2α/β) (setting [3]) and at CK2A2 (CK2α′/β) (setting [4]) were over 50 µM and 31.8 µM, respectively.
For `Cc1c(N[C@H]2CC[C@H](N)CC2)nn2c(C#N)cnc2c1Nc1ccccc1` [XXV(1), reference compound] the same measures were 2.69 µM and 8.09 µM.
